Assay results reported in US11446287B2, “Compounds and methods for EP300 or CBP modulation and indications therefor” (Opna Immuno-Oncology SA, priority 2019, dated 2022).

target: T1, Recombinant human EP300 containing the bromodomain (EP300-BD (1040-1161)) (Homo sapiens, UniProt Q09472); assay: EP300 Alphascreen binding assay
T1 construct: Recombinant human EP300 bromodomain (EP300-BD (1040-1161)); made in house; host or cells: E. coli BL21-CodonPlus (DE3), modified pET vector
T1 sequence (Q09472 1040-1161): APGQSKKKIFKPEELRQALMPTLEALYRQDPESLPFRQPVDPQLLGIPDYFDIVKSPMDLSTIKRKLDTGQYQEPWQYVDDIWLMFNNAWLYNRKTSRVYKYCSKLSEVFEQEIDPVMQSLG
Procedure: EP300 Alphascreen Binding Assay
Binding of compounds of Formula (I) with EP300 was assessed using Alphascreen™ binding assay. The inhibition of the interaction between the EP300 bromodomain and its acetylated target protein was measured quantitatively using recombinant EP300 protein, an acetylated Histone 3 peptide and AlphaScreen™ technology. In absence of inhibition of the EP300 protein bound to AlphaScreen™ nickel chelate acceptor beads can interact with the acetylated Histone 3 peptide which is immobilized by the AlphaScreen™ Streptavidin coated beads. This interaction brings donor and acceptor beads in proximity. The close proximity allows the singlet oxygen produced by laser excitation of the donor beads to reach the acceptor beads and generate a luminescence signal. EP300 inhibitors result in a decrease in the proximity signal through an inhibition of the EP300—acetylated peptide interaction.
Recombinant human EP300 containing the bromodomain (EP300-BD (1040-1161)) was prepared and purified as described in protein expression and purification session. The peptide is human Histone H345-64K56Ac-Biotin (Anaspec CA, USA).
Protocol for EP300 assay: All components were prepared in buffer composed of 50 mM HEPES pH 7.5, 50 mM NaCl, 0.01% BSA, 0.01% Triton X-100, 2 mM DTT. Test compounds and DMSO vehicle were diluted 1:50 in buffer and a 4 μL volume is transferred to an Alphaplate. 5.5 μL of EP300 protein and 5.5 μL of peptide were added to wells containing 4 μL of various concentrations of test compounds of Formula (I) or DMSO vehicle in an Alphaplate (PerkinElmer GA, USA) and incubated for 1 hour at room temperature. 5 μL donor and acceptor bead mixture was then added with final concentrations of 7.5 μg/ml. 60 minutes after bead addition, Alpha signal is read on the Envision spectrometer (λEx 680 nm, λEm 520-620 nm). Final concentrations of bromodomain proteins and peptide are as shown below.
All data were normalized to the mean of 16 high and 16 low control wells on each plate. A four parameter curve fit of the following formula was then applied: Y=A+((B−A)/(1+((C/x)^D))) Where ‘A’ is the minimum, ‘B’ is the maximum, ‘C’ is the IC50 and ‘D’ is the Hill slope. Protein Expression and Purification
Recombinant human EP300 bromodomain (EP300-BD (1040-1161)) was expressed in E. coli cells (in a modified pET vector) with an N-terminal six-His tag and purified using a combination of both IMAC (Ni-affinity) and size exclusion chromatography steps.
Recombinant EP300 protein was expressed using the E. coli strain BL21-CodonPlus (DE3) (Agilent Technologies CA, USA). Cells were grown in Terrific Broth (TB) media to an OD600 of 0.7 at 37° C. at which temperature was reduced to 18° C., protein was induced with 1.0 mM isopropyl-β-D-thiogalactopyranoside (“IPTG”) for 20 hours and harvested by centrifugation at 8500×g for 20 minutes. Cells were re-suspended in 0.1M K2PO4 pH 8.0, 250 mM NaCl, 10% Glycerol, 0.75% NP-40, 25 mM Imidazole, with 0.2 mg/ml Lysozyme, 0.2 mM phenylmethanesulfonyl fluoride (“PMSF”), 25 μg/ml DNase I, incubated on ice for 30 minutes and lysed with a cell disruptor (MicroFluidics MA, USA). The lysate was clarified by centrifugation at 20,000×g for 1 hour. The protein was captured with Ni-NTA resin (Life Technologies, USA). Contaminating proteins were washed off with 50 mM HEPES pH 7.5, 500 mM NaCl, and 5% Glycerol. Following 3× wash steps, protein was eluted step wise using 10, 25, 50, 100, 150, and 250 mM Imidazole in 50 mM HEPES pH 7.5, 500 mM NaCl, and 5% glycerol. The protein was further purified using a size exclusion column (26/600 Superdex 200, GE Biosciences NJ, USA) in 10 mM HEPES pH 7.5, […].

`COc1ccc(C(=O)O)cc1-c1cn(C(C)c2ccccc2)c2cc(-c3c(C)noc3C)cnc12` (stereo not drawn) [P-0140, 3-(6-(3,5-dimethylisoxazol-4-yl)-1-(1-phenylethyl)-1H-pyrrolo[3,2-b]pyridin-3-yl)-4-methoxybenzoic acid] and `COc1c(C(=O)O)cccc1-c1cn(C(C)c2ccccc2)c2cc(-c3c(C)noc3C)cnc12` (stereo not drawn) [P-0136, 3-(6-(3,5-dimethylisoxazol-4-yl)-1-(1-phenylethyl)-1H-pyrrolo[3,2-b]pyridin-3-yl)-2-methoxybenzoic acid] fall in the same range of IC50: 0.1 to 1000 nM for the first, 0.1 to 1000 nM for the second.

Compared with `Cc1noc(C)c1-c1cnc2c(c1)c(-c1ccnc(O)c1)cn2[C@@H](C)c1ccccn1` [P-0145, (S)-4-(5-(3,5-dimethylisoxazol-4-yl)-1-(1-(pyridin-2-yl)ethyl)-1H-pyrrolo[2,3-b]pyridin-3-yl)pyridin-2-ol], `Cc1noc(C)c1-c1cnc2c(c1)c(-c1ccnc(C(=O)O)n1)cn2C(C)c1ccccn1` (stereo not drawn) [P-0126, 4-(5-(3,5-dimethylisoxazol-4-yl)-1-(1-(pyridin-2-yl)ethyl)-1H-pyrrolo[2,3-b]pyridin-3-yl)pyrimidine-2-carboxylic acid] is lower in IC50: 1000 to 8000 nM for the first, 0.1 to 1000 nM for the second. The second is the more potent here.

`Cc1noc(C)c1-c1cnc2c(-c3ccc(C(=O)O)cc3)c(C(F)(F)F)n([C@@H](C)c3ccccn3)c2c1` [P-0154, (S)-4-(6-(3,5-dimethylisoxazol-4-yl)-1-(1-(pyridin-2-yl)ethyl)-2-(trifluoromethyl)-1H-pyrrolo[3,2-b]pyridin-3-yl)benzoic acid] and `Cc1noc(C)c1-c1cnc2c(Cc3ccccn3)cn(-c3ccc(C(=O)O)cc3OC(F)(F)F)c2c1` [P-0159, 4-(6-(3,5-dimethylisoxazol-4-yl)-3-(pyridin-2-ylmethyl)-1H-pyrrolo[3,2-b]pyridin-1-yl)-3-(trifluoromethoxy)benzoic acid] fall in the same range of IC50: 0.1 to 1000 nM for the first, 0.1 to 1000 nM for the second.

`Cc1noc(C)c1-c1cnc2c(Cc3cccc(OCc4ccccc4)c3)cn(-c3c(Cl)cc(C(=O)O)cc3Cl)c2c1` [P-0132, 4-(3-(3-(benzyloxy)benzyl)-6-(3,5-dimethylisoxazol-4-yl)-1H-pyrrolo[3,2-b]pyridin-1-yl)-3,5-dichlorobenzoic acid] and `Cc1noc(C)c1-c1cnc2c(Cc3cccc(OC(F)F)c3)cn(-c3ccnc(C(=O)O)c3)c2c1` [P-0100, 4-(3-(3-(difluoromethoxy)benzyl)-6-(3,5-dimethylisoxazol-4-yl)-1H-pyrrolo[3,2-b]pyridin-1-yl)picolinic acid] fall in the same range of IC50: 0.1 to 1000 nM for the first, 0.1 to 1000 nM for the second.

`CCCOc1cc(C(=O)O)cc(OCCC)c1-n1cc(CC2CCC2)c2ncc(-c3c(C)noc3C)cc21` [P-0127, 4-(3-(cyclobutylmethyl)-6-(3,5-dimethylisoxazol-4-yl)-1H-pyrrolo[3,2-b]pyridin-1-yl)-3,5-dipropoxybenzoic acid] and `Cc1noc(C)c1-c1cnc2c(CC3CCC3)cn(-c3ccc(C(=O)O)cn3)c2c1` [P-0009, 6-(3-(cyclobutylmethyl)-6-(3,5-dimethylisoxazol-4-yl)-1H-pyrrolo[3,2-b]pyridin-1-yl)nicotinic acid] fall in the same range of IC50: 0.1 to 1000 nM for the first, 0.1 to 1000 nM for the second.

`Cc1noc(C)c1-c1cnc2c(c1)c(-c1cccc(C(=O)O)n1)cn2C(C)c1ccccn1` (stereo not drawn) [P-0122, 6-(5-(3,5-dimethylisoxazol-4-yl)-1-(1-(pyridin-2-yl)ethyl)-1H-pyrrolo[2,3-b]pyridin-3-yl)picolinic acid] and `Cc1noc(C)c1-c1cnc2c(c1)c(-c1cncc(C(=O)O)n1)cn2[C@@H](C)c1ccccn1` [P-0106, (S)-6-(5-(3,5-dimethylisoxazol-4-yl)-1-(1-(pyridin-2-yl)ethyl)-1H-pyrrolo[2,3-b]pyridin-3-yl)pyrazine-2-carboxylic acid] fall in the same range of IC50: 1000 to 8000 nM for the first, 1000 to 8000 nM for the second.

`Cc1noc(C)c1-c1cnc2c(CC3CCC3)cn(-c3ccc(C#N)c(C(=O)O)c3)c2c1` [P-0104, 2-cyano-5-(3-(cyclobutylmethyl)-6-(3,5-dimethylisoxazol-4-yl)-1H-pyrrolo[3,2-b]pyridin-1-yl)benzoic acid] and `Cc1noc(C)c1-c1cnc2c(CC3CCC3)cn(-c3ccc(C(=O)O)c(C#N)c3)c2c1` [P-0105, 2-cyano-4-(3-(cyclobutylmethyl)-6-(3,5-dimethylisoxazol-4-yl)-1H-pyrrolo[3,2-b]pyridin-1-yl)benzoic acid] fall in the same range of IC50: 0.1 to 1000 nM for the first, 0.1 to 1000 nM for the second.

`Cc1noc(C)c1-c1cnc2c(c1)c(-c1ccc(C(=O)O)cc1OC1COC1)cn2[C@@H](C)c1ccccn1` [P-0137, (S)-4-(5-(3,5-dimethylisoxazol-4-yl)-1-(1-(pyridin-2-yl)ethyl)-1H-pyrrolo[2,3-b]pyridin-3-yl)-3-(oxetan-3-yloxy)benzoic acid] and `CCOc1cc(C(=O)O)ccc1-c1cn([C@@H](C)c2ccccn2)c2ncc(-c3c(C)noc3C)cc12` [P-0114, (S)-4-(5-(3,5-dimethylisoxazol-4-yl)-1-(1-(pyridin-2-yl)ethyl)-1H-pyrrolo[2,3-b]pyridin-3-yl)-3-ethoxybenzoic acid] fall in the same range of IC50: 0.1 to 1000 nM for the first, 0.1 to 1000 nM for the second.

`Cc1noc(C)c1-c1cnc2c(c1)c(-c1ccc(F)c(C(=O)O)c1F)cn2[C@@H](C)c1ccccn1` [P-0125, (S)-3-(5-(3,5-dimethylisoxazol-4-yl)-1-(1-(pyridin-2-yl)ethyl)-1H-pyrrolo[2,3-b]pyridin-3-yl)-2,6-difluorobenzoic acid] and `Cc1noc(C)c1-c1cnc2c(c1)c(-c1ccc(C(=O)O)cc1F)cn2[C@@H](C)c1ccccn1` [P-0097, (S)-4-(5-(3,5-dimethylisoxazol-4-yl)-1-(1-(pyridin-2-yl)ethyl)-1H-pyrrolo[2,3-b]pyridin-3-yl)-3-fluorobenzoic acid] fall in the same range of IC50: 0.1 to 1000 nM for the first, 0.1 to 1000 nM for the second.

First: Cc1noc(C)c1-c1cnc2c(C3=CCOCC3)cn(-c3c(Cl)cc(C(=O)O)cc3Cl)c2c1 [P-0151, 3,5-dichloro-4-(3-(3,6-dihydro-2H-pyran-4-yl)-6-(3,5-dimethylisoxazol-4-yl)-1H-pyrrolo[3,2-b]pyridin-1-yl)benzoic acid]
Second: Cc1noc(C)c1-c1cnc2c(c1)c(-c1cccc(C(=O)O)c1)cn2CC1(C)COC1 [P-0102, 3-(5-(3,5-dimethylisoxazol-4-yl)-1-((3-methyloxetan-3-yl)methyl)-1H-pyrrolo[2,3-b]pyridin-3-yl)benzoic acid]
The IC50 of the first is lower: 0.1 to 1000 nM for the first, 1000 to 8000 nM for the second.

`COc1cc(C(=O)O)cc(OCC2CC2)c1-c1cn([C@@H](C)c2ccccn2)c2ncc(-c3c(C)noc3C)cc12` [P-0152, (S)-3-(cyclopropylmethoxy)-4-(5-(3,5-dimethylisoxazol-4-yl)-1-(1-(pyridin-2-yl)ethyl)-1H-pyrrolo[2,3-b]pyridin-3-yl)-5-methoxybenzoic acid] and `Cc1noc(C)c1-c1cnc2c(c1)c(-c1ccc(C(=O)O)cc1)cn2C(c1ccccn1)C1CC1` (stereo not drawn) [P-0007, 4-(1-(cyclopropyl(pyridin-2-yl)methyl)-5-(3,5-dimethylisoxazol-4-yl)-1H-pyrrolo[2,3-b]pyridin-3-yl)benzoic acid] fall in the same range of IC50: 0.1 to 1000 nM for the first, 0.1 to 1000 nM for the second.

First: Cc1ccc(S(=O)(=O)n2cc(-c3ccc(C(=O)O)cc3)c3cc(-c4c(C)noc4C)cnc32)cc1 [P-0006, 4-(5-(3,5-dimethylisoxazol-4-yl)-1-tosyl-1H-pyrrolo[2,3-b]pyridin-3-yl)benzoic acid]
Second: C#Cc1ccccc1-c1cn(C(C)(c2ccccn2)c2ccccn2)c2cc(-c3c(C)noc3C)cnc12 [P-0167, 4-(1-(1,1-di(pyridin-2-yl)ethyl)-3-(2-ethynylphenyl)-1H-pyrrolo[3,2-b]pyridin-6-yl)-3,5-dimethylisoxazole]
The IC50 of the first is higher: 1000 to 8000 nM for the first, 0.1 to 1000 nM for the second.
